Our source for the IC50 values is US11180488B2, “Isoxazole o-linked carbamoyl cyclohexyl acids as LPA antagonists” (BRISTOL-MYERS SQUIBB COMPANY, priority 2017, dated 2021).

T1 sequence (Q92633 whole entry): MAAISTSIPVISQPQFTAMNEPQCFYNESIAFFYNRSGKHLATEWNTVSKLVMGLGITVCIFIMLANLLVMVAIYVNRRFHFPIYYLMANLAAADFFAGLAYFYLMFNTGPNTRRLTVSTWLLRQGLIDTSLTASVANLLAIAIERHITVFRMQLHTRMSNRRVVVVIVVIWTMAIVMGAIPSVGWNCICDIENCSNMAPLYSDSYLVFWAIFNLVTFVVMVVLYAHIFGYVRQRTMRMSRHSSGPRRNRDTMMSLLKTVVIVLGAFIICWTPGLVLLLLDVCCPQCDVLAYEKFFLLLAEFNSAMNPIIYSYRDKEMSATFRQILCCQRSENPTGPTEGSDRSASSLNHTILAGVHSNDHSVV

The first assay addresses T1, human LPA1 (Homo sapiens, UniProt Q92633).
T1 construct: expressed in transfected cells; host or cells: Chinese hamster ovary (CHO) cells
The assay is described as follows: LPA1 functional antagonist assay (LPA-induced calcium flux). As to conditions: CHO cells overexpressing human LPA1; calcium flux induced by 10 nM LPA; read-out: LPA1 IC50. The assay is classed as cell-based. As for the experimental part: The effectiveness of compounds of the present invention as LPA1 inhibitors can be determined in an LPA1 functional antagonist assay as follows:
Chinese hamster ovary cells overexpressing human LPA1 were plated overnight (15,000 cells/well) in poly-D-lysine coated 384-well microplates (Greiner bio-one, Cat #781946) in DMEM/F12 medium (Gibco, Cat #11039). Following overnight culture, cells were loaded with calcium indicator dye (AAT Bioquest Inc, Cat #34601) for 30 minutes at 37° C. The cells were then equilibrated to room temperature for 30 minutes before the assay. Test compounds solubilized in DMSO were transferred to 384 well non-binding surface plates (Corning, Cat #3575) using the Labcyte Echo acoustic dispense and diluted with assay buffer [1×HBSS with calcium/magnesium (Gibco Cat #14025-092), 20 mM HEPES (Gibco Cat #15630-080) and 0.1% fatty acid free BSA (Sigma Cat #A9205)] to a final concentration of 0.5% DMSO. Diluted compounds were added to the cells by FDSS6000 (Hamamatsu) at final concentrations ranging from 0.08 nM to 5 μM. and were then incubated for 20 min at room temperature at which time LPA (Avanti Polar Lipids Cat #857130C) was added at final concentrations of 10 nM to stimulate the cells. […] IC50 values were determined by fitting data to a 4-parameter logistic equation (GraphPad Prism, San Diego Calif.).
As usually defined, the IC50 is the point on the concentration scale where inhibition reaches its midpoint. Take `Cc1noc(-c2ccc(O[C@H]3CCC[C@H](C(=O)O)C3)cn2)c1COC(=O)N(C)C(C1CC1)C1CC1` [Example 57]: the IC50 was 26 nM.

Turning to `Cc1nc(-c2onc(C)c2COC(=O)N(C)[C@H](C)c2ccccc2)ccc1O[C@H]1CCC[C@H](C(=O)O)C1` [Example 62], the IC50 worked out at 17 nM.

With `Cc1noc(-c2ccc(O[C@H]3CCC[C@H](C(=O)O)C3)cn2)c1COC(=O)N(C)CC1CCC1` [Example 58], the IC50 was determined as 8 nM. Regarding `Cc1nc(-c2onc(C)c2COC(=O)N[C@H](C)c2ccccc2)ccc1O[C@H]1CCC[C@H](C(=O)O)C1` [Example 59], the IC50 amounted to 45 nM. Still for that read-out and setting: under `Cc1nc(-c2onc(C)c2COC(=O)N(C)Cc2cccc(F)c2)ccc1O[C@H]1CCC[C@H](C(=O)O)C1` [Example 61] stands 19 nM. For the compound `Cc1nc(-c2onc(C)c2COC(=O)NC(C)(C)C)ccc1O[C@H]1CCC[C@H](C(=O)O)C1` [Example 60], the half-maximal inhibitory concentration (IC50) was 166 nM.

Still in this assay, the particulars now being: CHO cells overexpressing human LPA1; calcium flux induced by 10 nM LPA; read-out: hLPA1 IC50.
On to `Cc1noc(-c2ccc(OC3CCCC(c4nnn[nH]4)C3)cc2)c1COC(=O)N(C)C1CCCC1` (single isomer, unassigned) [Example 78, (5-(4-((3-(1H-tetrazol-5-yl)cyclohexyl)oxy)phenyl)-3-methylisoxazol-4-yl)methyl cyclopentyl(methyl)carbamate], for which the IC50 is 565 nM. As for `Cc1noc(-c2ccc(O[C@H]3CCC[C@H](C(=O)O)C3)cc2)c1C(C)OC(=O)N(C)[C@H](C)C1CC1` (stereo partly drawn) [Example 51], the IC50 was found to be 32 nM. Still for that read-out and setting: under `Cc1noc(-c2ccc(O[C@H]3CCC[C@H](C(=O)O)C3)cc2)c1COC(=O)N(C)CC1CCC1` [Example 34] stands 82 nM; under `Cc1nc(-c2onc(C)c2COC(=O)N(C)C2CCCC2)ccc1O[C@H]1CCC[C@@H](C(=O)O)C1` [Example 39], 27 nM; under `Cc1onc(-c2ccc(O[C@H]3CCC[C@H](C(=O)O)C3)nc2)c1COC(=O)N(C)C1CCCC1` [Example 54, (1S,3S)-3-((5-(4-(((cyclopentyl(methyl)carbamoyl)oxy)methyl)-5-methylisoxazol-3-yl)pyridin-2-yl)oxy)cyclohexane-1-carboxylic Acid], 197 nM. As for `Cc1noc(-c2ccc(O[C@H]3CCC[C@H](C(=O)O)C3)cc2)c1C(C)OC(=O)N(C)CCC(C)C` (stereo partly drawn) [Example 50, (1S,3S)-3-(4-(4-(1-((isopentyl(methyl)carbamoyl)oxy)ethyl)-3-methyl-isoxazol-5-yl)phenoxy)cyclohexane-1-carboxylic Acid], the IC50 came out at 175 nM. For the compound `CCCCN(C)C(=O)OCc1c(C)noc1-c1ccc(O[C@H]2CCC[C@H](C(=O)O)C2)cc1` [Example 2, (1S,3S)-3-(4-(4-(((butyl(methyl)carbamoyl)oxy)methyl)-3-methylisoxazol-5-yl)phenoxy) cyclohexane-1-carboxylic Acid], the IC50 was determined as 28 nM. As for `Cc1nc(-c2onc(C)c2COC(=O)N(C)CC2CCCC2)ccc1O[C@H]1CCC[C@H](C(=O)O)C1` [Example 21], the IC50 was 29 nM.

On to `Cc1noc(-c2ccc(O[C@H]3CCC[C@H](C(=O)O)C3)cn2)c1COC(=O)N(C)[C@H](C)C1CC1` [Example 42], for which the IC50 is 20 nM. On the same count and under the same terms, under `Cc1noc(-c2ccc(O[C@H]3CCC[C@H](C(N)=O)C3)cc2)c1COC(=O)N(C)C1CCCC1` (racemic) [Example 73, (±)-Trans-(5-(4-((3-carbamoylcyclohexyl)oxy)phenyl)-3-methylisoxazol-4-yl)methyl cyclopentyl(methyl)carbamate] stands 1210 nM. Regarding `Cc1noc(-c2ccc(O[C@@H]3CCC[C@@](F)(C(=O)O)C3)cc2)c1COC(=O)N(C)C1CCCC1` (racemic) [Example 3], the IC50 worked out at 18 nM.

As to `Cc1noc(-c2ccc(O[C@H]3CCC[C@H](C(=O)O)C3)cn2)c1COC(=O)N(C)[C@@H](C)C1CC1` [Example 41], the IC50 is 46 nM.

`Cc1nc(-c2onc(C)c2COC(=O)N(C)Cc2ccccc2)ccc1O[C@H]1CCC[C@H](C(=O)O)C1` [Example 18]: the IC50 is 31 nM. For the compound `CCC(CC)N(C)C(=O)OCc1c(C)noc1-c1ccc(O[C@H]2CCC[C@H](C(=O)O)C2)c(C)n1` [Example 13], the IC50 was 53 nM.

Regarding `Cc1noc(-c2ccc(O[C@@H]3CCC[C@@H](C(=O)O)C3)cc2)c1COC(=O)N(C)CCC1CCCC1` [Example 28], the IC50 came to 470 nM. For the compound `Cc1noc(-c2ccc(O[C@H]3CCC[C@H](C(=O)O)C3)cn2)c1COC(=O)N(C)C1CC(C)(C)C1` [Example 70], the IC50 came out at 23 nM.

`Cc1nc(-c2onc(C)c2COC(=O)N(C)C2CCCC2)ccc1O[C@H]1CCC[C@H](C(=O)O)C1` [Example 12]: the IC50 was determined as 14 nM. Same read-out and setting: under `Cc1onc(-c2ccc(O[C@H]3CCC[C@H](C(=O)O)C3)cc2)c1COC(=O)N(C)C1CCCC1` [Example 53, (1S,3S)-3-(4-(4-(((cyclopentyl(methyl)carbamoyl)oxy)methyl)-5-methylisoxazol-3-yl)phenoxy)cyclohexane-1-carboxylic Acid] stands 6 nM; under `Cc1nc(-c2onc(C)c2COC(=O)N(C)CCC(C)C)ccc1O[C@H]1CCC[C@H](C(=O)O)C1` [Example 20], 8 nM; under `[2H]C([2H])([2H])N(C(=O)OCc1c(C)noc1-c1ccc(O[C@H]2CCC[C@H](C(=O)O)C2)cn1)[C@H](C)C1CC1` [Example 66], 25 nM. Consider `Cc1noc(-c2ccc(O[C@H]3CCC[C@H](C(=O)O)C3)cc2)c1COC(=O)N(C)CC1CC1` [Example 37], for which the IC50 worked out at 206 nM.

Regarding `Cc1nc(-c2onc(C)c2COC(=O)N(C)CC2CC2)ccc1O[C@H]1CCC[C@H](C(=O)O)C1` [Example 14], the IC50 came to 14 nM. In the case of `Cc1noc(-c2ccc(O[C@H]3CCC[C@H](C(=O)O)C3)cn2)c1COC(=O)N[C@H](C)C1CC1` [Example 40], the IC50 was found to be 1650 nM.

Regarding `Cc1noc(-c2ccc(O[C@H]3CCC[C@H](C(=O)O)C3)cc2)c1COC(=O)N(C)CCC1CC1` [Example 27], the IC50 is 23 nM. On the same count and under the same terms, under `Cc1noc(-c2ccc(O[C@@H]3CCC[C@](C)(C(=O)O)C3)cc2)c1COC(=O)N(C)C1CCCC1` (racemic) [Example 7, (±)-Cis-3-(4-(4-(((cyclopentyl(methyl)carbamoyl)oxy)methyl)-3-methylisoxazol-5-yl)phenoxy)-1-methylcyclohexanecarboxylic Acid] stands 2180 nM. `Cc1nc(-c2onc(C)c2COC(=O)N(C)CCC2CC2)ccc1O[C@H]1CCC[C@H](C(=O)O)C1` [Example 10, (1S,3S)-3-((6-(4-((((2-Cyclopropylethyl)(methyl)carbamoyl)oxy)methyl)-3-methylisoxa-zol-5-yl)-2-methylpyridin-3-yl)oxy)cyclohexanecarboxylic Acid]: the IC50 was 11 nM. In the case of `Cc1noc(-c2ccc(O[C@H]3CCC[C@H](C(=O)O)C3)cc2)c1COC(=O)N1C[C@H]2C[C@H]2C1` [Example 35], the IC50 amounted to 1230 nM. `Cc1noc(-c2ccc(O[C@@H]3CCC[C@@H](C(=O)O)C3)cc2)c1COC(=O)N(C)C(C)C1CCC1` (stereo partly drawn) [Example 69]: the IC50 came to 214 nM.

Turning to `Cc1noc(-c2cnc(O[C@H]3CCC[C@H](C(=O)O)C3)cn2)c1COC(=O)N(C)C(C)C1CC1` (mixture of isomers) [Example 9, (±)-Trans-3-((5-(4-((((1-cyclopropylethyl)(methyl)carbamoyl)oxy)methyl)-3-methyl-isoxazol-5-yl)pyrazin-2-yl)oxy)cyclohexanecarboxylic Acid], the IC50 was 85 nM. The same measure, in the same setting: in the case of `Cc1noc(-c2ccc(O[C@@H]3CCC[C@@H](C(=O)O)C3)c(F)c2)c1COC(=O)N(C)C1CCCC1` [Example 38] it was 26 nM; in that of `Cc1nc(-c2onc(C)c2COC(=O)N(C)C2(c3ccccc3)CC2)ccc1O[C@H]1CCC[C@H](C(=O)O)C1` [Example 16], 93 nM.

Take `CCCCN(C)C(=O)OC(C)c1c(C)noc1-c1ccc(O[C@H]2CCC[C@H](C(=O)O)C2)cc1` (stereo partly drawn) [Example 52]: the IC50 is 60 nM. On to `Cc1noc(-c2ccc(O[C@H]3CCC[C@@H](CC(=O)O)C3)cc2)c1COC(=O)N(C)C1CCCC1` [Example 48], for which the IC50 worked out at 1490 nM. On to `Cc1noc(-c2ccc(O[C@H]3CCC[C@H](C(=O)O)C3)cn2)c1COC(=O)N(C)CCC(C)C` [Example 45], for which the IC50 was determined as 5.2 nM.

Regarding `Cc1noc(-c2ccc(O[C@H]3CCC[C@H](C(=O)O)C3)cc2)c1COC(=O)N(C)C1CCC1` [Example 36], the IC50 came to 102 nM. For the compound `CCCCCN(C)C(=O)OCc1c(C)noc1-c1ccc(O[C@H]2CCC[C@H](C(=O)O)C2)c(C)n1` [Example 19], the IC50 came to 10 nM. Regarding `CCCCN(C)C(=O)OCc1c(C)noc1-c1ccc(O[C@H]2CCC[C@H](C(=O)O)C2)c(C)n1` [Example 15], the 50% inhibitory concentration (IC50) amounted to 15 nM.

Consider `Cc1noc(-c2ccc(OC3CCCC(F)(C(=O)O)C3)cc2)c1COC(=O)N(C)C1CCCC1` (single isomer, unassigned) [Example 5], for which the IC50 amounted to 133 nM. For the compound `Cc1noc(-c2ccc(O[C@H]3CCC[C@](C)(C(=O)O)C3)cc2)c1COC(=O)N(C)C1CCCC1` (racemic) [Example 8, (±)-Trans-3-(4-(4-(((cyclopentyl(methyl)carbamoyl)oxy)methyl)-3-methylisoxazol-5-yl)phenoxy)-1-methylcyclohexanecarboxylic Acid], the IC50 was found to be 89 nM.
